Consider ten molecules from ChEMBL document CHEMBL1201862, “PubChem BioAssay data set” (2004).

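Dose response: 5 concentrations. Exposure: 48 h. Format: 96-well plates. Endpoint: linear interpolation; highest concentration if not reached. GI50 is the concentration that inhibits growth by half.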 Active and inactive are the calls of the source. No stated cut-off is given here; in the data, active = GI50 up to about 1.1 µM and inactive = higher.

Some test systems named below: HOP-62; HCC 2998; DU-145; COLO 205; HOP-92; TK-10; SK-OV-3; PC-3; M14; OVCAR-4; T47D; SK-MEL-2; NCI-H23; HT-29; A498; Hs-578T; Malme-3M.
Assay in all cases: NCI-60 cell line screen, 48 h

Take `COc1ccc(-n2c(=O)c3nc(S)[nH]c3n(-c3ccc(OC)cc3)c2=S)cc1`: the GI50 in the test with HOP-62, in the test with HCC 2998, in the test on DU-145, in the test with COLO 205, in the test on HOP-92 and in the test with TK-10 was > 100 µM (inactive) in each case. Also, the GI50 in the test with SK-OV-3, in the test with PC-3, with M14, in the test on OVCAR-4, in the test on T47D and in the test on SK-MEL-2 was > 100 µM (inactive) each time. Also, the GI50 with NCI-H23, with HT-29 and in the test on A498 was > 100 µM (inactive) each time.
As to `O=P1(c2ccccc2)c2ccccc2CCc2ccccc21`, the GI50 with HOP-62 was > 100 µM (inactive); in the test on HCC 2998, > 100 µM (inactive); with DU-145, 72.8 µM (inactive); in the test with COLO 205 it was > 100 µM (inactive); with Hs-578T, > 100 µM (inactive); in the test with HOP-92 it was 35.6 µM (inactive). Moreover, the GI50 in the test with TK-10 was > 100 µM (inactive); in the test with SK-OV-3, 58.2 µM (inactive); in the test with PC-3, 50.5 µM (inactive); in the test on M14, 70 µM (inactive); in the test with SK-MEL-2, 49.3 µM (inactive); in the test with NCI-H23, > 100 µM (inactive).
`CCOc1cccc(/C=N/N=C2\C(=O)Nc3c(Cl)cc(Cl)cc32)c1O`: the GI50 is 30.4 µM (inactive) in the test on HOP-62; 85.7 µM (inactive) with HCC 2998; > 100 µM (inactive) with COLO 205; > 100 µM (inactive) in the test with Hs-578T; 75.7 µM (inactive) with HOP-92; > 100 µM (inactive) with TK-10. In addition, the GI50 in the test with SK-OV-3 is > 100 µM (inactive); in the test on PC-3 it was 44.2 µM (inactive); in the test on M14 it was 73.3 µM (inactive); in the test on OVCAR-4 it was 62.8 µM (inactive); in the test on SK-MEL-2, 83.8 µM (inactive); in the test on NCI-H23 it was 50.1 µM (inactive). For the same molecule, the GI50 in the test on HT-29 is > 100 µM (inactive); with A498, 36.6 µM (inactive); in the test on Malme-3M, > 100 µM (inactive).
On to `NC(=O)C(=O)C(c1ccccc1)S(=O)(=O)Cc1ccccc1` (stereo not given), for which the GI50 in the test on HOP-62, in the test on HCC 2998, in the test with DU-145, with COLO 205, in the test on HOP-92 and in the test on TK-10 was > 100 µM (inactive) throughout. In addition, the GI50 in the test with SK-OV-3, with PC-3, in the test on M14, with OVCAR-4, in the test with T47D and in the test with SK-MEL-2 was > 100 µM (inactive) in each case. The GI50 in the test on NCI-H23 and with HT-29 was > 100 µM (inactive) throughout.
For `CS(=O)(=O)c1nc(-c2cc3c(c(S(C)(=O)=O)n2)CCC3)cc2c1CCCC2`, the GI50 is 24.1 µM (inactive) in the test with HOP-62; > 100 µM (inactive) in the test on HCC 2998; > 100 µM (inactive) in the test with DU-145; > 100 µM (inactive) in the test with COLO 205; 2.55 µM (inactive) with Hs-578T; 64.9 µM (inactive) in the test on TK-10. In addition, the GI50 with SK-OV-3 was 24.4 µM (inactive); in the test on PC-3, > 100 µM (inactive); with M14, > 100 µM (inactive); in the test on OVCAR-4 it was > 100 µM (inactive); with SK-MEL-2, 24.6 µM (inactive); in the test on NCI-H23 it was 58.3 µM (inactive). For the same molecule, the GI50 with HT-29 was > 100 µM (inactive).
Turning to `Cc1cccc(N2CCN(S(=O)(=O)c3ccc(Cl)cc3)C2=N)c1C`, the GI50 was 93.3 µM (inactive) in the test with DU-145; > 100 µM (inactive) with COLO 205; > 100 µM (inactive) in the test with TK-10; > 100 µM (inactive) in the test on SK-OV-3; > 100 µM (inactive) in the test on M14; > 100 µM (inactive) in the test with T47D. The GI50 in the test on NCI-H23 is 96.4 µM (inactive); with HT-29 it was > 100 µM (inactive); in the test on A498, > 100 µM (inactive).
`O=c1c2sc(=S)n(-c3ccc(F)cc3)c2ncn1/N=C/c1ccc(F)cc1F`: the GI50 in the test with HOP-62 is 16.6 µM (inactive); in the test on HCC 2998, 31 µM (inactive); in the test with DU-145, 19 µM (inactive); in the test on COLO 205, > 100 µM (inactive); with Hs-578T, 29.1 µM (inactive); in the test with HOP-92, 11 µM (inactive). Besides, the GI50 in the test on TK-10 is 18.1 µM (inactive); with SK-OV-3, 25.4 µM (inactive); with PC-3, 31.6 µM (inactive); with M14, 23.2 µM (inactive); in the test on OVCAR-4, 18.9 µM (inactive); in the test with SK-MEL-2 it was 25.4 µM (inactive). The GI50 in the test with NCI-H23 was 33.4 µM (inactive); in the test with HT-29, > 100 µM (inactive); in the test on A498, 19.3 µM (inactive); in the test on Malme-3M it was 18.7 µM (inactive).
On to `CC(C)(C)C(=O)Nc1c(C=O)ccc2[nH]cnc12`, for which the GI50 with HOP-62 was 61.8 µM (inactive); in the test with HCC 2998 it was > 100 µM (inactive); in the test with COLO 205, > 100 µM (inactive); in the test with HOP-92, > 100 µM (inactive); in the test with TK-10 it was > 100 µM (inactive); in the test with SK-OV-3, > 100 µM (inactive). The GI50 was 74.3 µM (inactive) with PC-3; > 100 µM (inactive) in the test on M14; > 100 µM (inactive) in the test with OVCAR-4; > 100 µM (inactive) in the test with T47D; > 100 µM (inactive) in the test on SK-MEL-2; > 100 µM (inactive) in the test on NCI-H23. Besides, in the test with A498, the GI50 was > 100 µM (inactive).
For `CS(=O)(=O)O[C@H]1[C@H](O)c2ccccc2[C@@H]1N=[N+]=[N-]`, the GI50 in the test on HOP-62, in the test on HCC 2998, in the test with DU-145, with COLO 205, in the test on HOP-92 and in the test on SK-OV-3 was > 100 µM (inactive) throughout. Also, the GI50 with PC-3, in the test on M14, with OVCAR-4, with SK-MEL-2, with NCI-H23 and in the test on HT-29 was > 100 µM (inactive) each time. Moreover, the GI50 in the test on A498 and in the test with Malme-3M was > 100 µM (inactive) throughout.
On to `CC(=O)O[C@H]1C(=O)[C@@]2(C)C(C(OC(=O)c3ccccc3)[C@]3(O)CC(OC(=O)C(O)C(NC(=O)c4cccc(Cl)c4)c4ccccc4)C(C)=C1C3(C)C)[C@]1(OC(C)=O)CO[C@@H]1C[C@@H]2O` (stereo not given in full), for which the GI50 in the test with HOP-62 is 0.518 µM (active); with HCC 2998, 0.0664 µM (active); in the test on DU-145, 0.546 µM (active); in the test on COLO 205, 0.385 µM (active); with HOP-92, > 10 µM (inactive); in the test with TK-10, 2.51 µM (inactive). The GI50 with SK-OV-3 is 3.67 µM (inactive); in the test with PC-3 it was 1.53 µM (inactive); in the test on M14 it was 0.851 µM (active); with OVCAR-4, 3.96 µM (inactive); in the test with SK-MEL-2, 0.656 µM (active); in the test with NCI-H23, 1.39 µM (inactive). Besides, the GI50 with HT-29 was 0.269 µM (active); in the test on Malme-3M it was 2.75 µM (inactive).
